Results reported in patent US4816487A, “1-(2-hydroxyaryl)-alkane-1-on-oximes-procedure of preparation and use in pharmaceuticals” (Humboldt-Universitaet zu Berlin, priority 1985, dated 1989).

Key:
rat's paw = assay: carrageenin-induced oedema of rat's paw; type: in vivo; settings: 50 mg/kg i.p.
Text: This method is an adequate model of asthma bronchiale forms in experimental animals with involvement of IgE-dependent and IgG-dependent allergic reactions /R. Andersson, Brit. J. Pharmacol. 77, 301 (1982)/. The conclusion was, therefore, drawn that the comounds of general Formula I, according to this invention, should, as well, have clearly pronounced antiphlogistic properties. That conclusion was positively verified in vivo by an appropriate inflammatory model in the context of an animal experiment, using carragheenin--induced oedema of rat's paw. The experimental model was handled according to a method proposed by Winter and co-workers /C. A. Winter, E. A. Risley, and G. W. Nuss, Proc. Soc. Exp. Biol. Med. 111, 544 (1962)/ (cf. Example 19).
Inhibition of carrageenin-induced oedema of rat's paw:
Testing is conducted by methods common in international practice /C.A. Winter, E. A. Risley and G. W. Nuss, Proc. Soc. Exp. Biol. Med. 111, 544 (1962)/. Ten rats received intraperitoneal injections of 50 mg/kg body weight of 5-methyl-2-hydroxy-laurophenone-oxime in parallel with 0.1 ml of 0.1-per-cent carrageenin solution (per animal). The development of paw oedema was measured in one-hour intervals, following application, and compared with manifestations in a control group.

[1] = molecular target: T1, lipoxygenase from rabbit reticulocytes (Oryctolagus cuniculus, UniProt P12530); assay: inhibition of activity of lipoxygenase from rabbit reticulocytes; type: biochemical
T1 construct: Lipoxygenase from rabbit reticulocytes was obtained in electrophoretically and immunologically pure form; from tissue; host or cells: rabbit reticulocytes
T1 sequence (P12530 1-663): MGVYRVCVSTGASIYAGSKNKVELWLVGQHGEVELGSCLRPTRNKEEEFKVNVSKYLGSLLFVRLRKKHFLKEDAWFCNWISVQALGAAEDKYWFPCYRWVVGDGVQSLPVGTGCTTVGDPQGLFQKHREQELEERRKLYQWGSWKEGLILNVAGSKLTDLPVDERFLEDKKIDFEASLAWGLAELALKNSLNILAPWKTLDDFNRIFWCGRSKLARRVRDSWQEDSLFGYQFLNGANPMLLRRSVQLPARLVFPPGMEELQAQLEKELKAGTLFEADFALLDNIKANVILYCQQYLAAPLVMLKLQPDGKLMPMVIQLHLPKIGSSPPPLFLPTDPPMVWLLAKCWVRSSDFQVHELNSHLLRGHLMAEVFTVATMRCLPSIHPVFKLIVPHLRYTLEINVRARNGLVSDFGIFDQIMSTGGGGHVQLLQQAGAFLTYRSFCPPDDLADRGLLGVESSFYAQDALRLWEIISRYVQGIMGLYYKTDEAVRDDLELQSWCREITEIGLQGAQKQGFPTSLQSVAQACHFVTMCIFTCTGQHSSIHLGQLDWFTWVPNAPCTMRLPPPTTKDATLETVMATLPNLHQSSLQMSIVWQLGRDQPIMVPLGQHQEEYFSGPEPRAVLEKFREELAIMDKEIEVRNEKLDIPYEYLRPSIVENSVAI
Procedure: Persuasive evidence to inhibition of lipoxygenase was produced by a suitable animal lipoxygenase which had been isolated from rabbit reticulocytes, using a method by Rapoport and coworkers /S. M. Rapoport et al., Eur. J. Biochem. 96, 545 (1979)/. A final concentration of 1 mM of most of the compounds, according to this invention, produced inhibition of 90 percent or more (cf. Example 20). Significant inhibition was even recordable from a final concentration of 0.1 mM of some of the compounds, according to this invention. Substance concentrations were varied to determine the titration curves of inhibition and from these the half-inhibition concentrations (I50 -values). A half-inhibition concentration of 7 μM was established for 5-methyl-2-hydroxy-laurophenone-oxime, an oxime of high anti-asthmatic effectiveness.
Inhibition of activity of lipoxygenase from rabbit reticulocytes:
Lipoxygenase from rabbit reticulocytes was obtained in electrophoretically and immunologically pure form by means of the method described in the literature /S. M. Rapoport et al., Eur. J. Biochem. 96, 545 (1979)/. Lipoxygenase activity was determined at 25° C. by amperometric measurement of oxygen consumption by means of a Clark electrode in the following system: 0.1M potassium phosphate, pH 7.4, with 0.2-per-cent sodium cholate and 0.53 mM linoleic acid. The enzyme concentration was […] in the sample for measurement. The substances submitted for testing were dissolved in methyl glycol (fresh distillation in vacuum) and pre-incubated ten minutes with the enzyme at measurement temperature and in the absence of sodium cholate and linoleic acid. […] No remarkable inhibition occurred to control samples under these conditions. Enzyme reaction was started by addition of sodium cholate and linoleic acid. The titration curve of inhibition and, consequently, the concentrations required for inhibition by the order of 50 per cent were determined by variation of active substance concentrations. For comparison, the compounds were tested also on commercial lipoxygenase-1 from soybean.

[2] = tested on: trachea isolated from guinea pig; assay: carbachol-induced contraction of trachea isolated from guinea pig; settings: spasm by 3.9 μM carbachol; clearly detectable even at 50 μM of active substance
Procedure: Action of 5-methyl-2-hydroxy-laurophenone-oxime on carbachol-induced contraction of trachea isolated from guinea pig:
The compound was checked for anti-asthmatic activity by means of measuring methods well established and known from the literature (cf p. 5) but modified for the purpose of this invention, using a tracheal spiral isolated from guinea pig. Measurements were conducted in thermostat-controlled organ bath in isotonic condition, using a contraction gauge with lever-type sensor, measuring coil, and measuring amplifier (inductive measurement by means of high-frequency oscillating circuit). Air was used for gassing. The suspension solution was of the following composition: 39.46 g of sodium chloride, 2.2 g of potassium chloride, 6.07 g of tris, 1.0 g of calcium chloride, 9.9 g of glucose, 1.0 ml of saturated magnesium chloride solution, 43 ml 1N hydrochloric acid per 5 l, pH 7.4.
Spasm was induced by 3.9 μM of carbachol.

For `CCCCCCCCCCCC(=NO)c1cc(C)ccc1O` [5-methyl-2-hydroxy-laurophenone-oxime], the “Inhibition of carrageenin-induced oedema” value (rat's paw; 0.5 hr, + significant, P < 0.05) was 43%, the “Inhibition of carrageenin-induced oedema” value (rat's paw; 1 hr, + significant, P < 0.05) was 47% and the “Inhibition of carrageenin-induced oedema” value (rat's paw; 2 hr, + significant, P < 0.05) was 34%. The “Inhibition of carrageenin-induced oedema” value (rat's paw; 3 hr, + significant, P < 0.05) was 34%, the “Inhibition of carrageenin-induced oedema” value (rat's paw; 4 hr, not marked significant) was 31% and the “Inhibition of carrageenin-induced oedema” value (rat's paw; 5 hr, not marked significant) was 29%. The IC50 ([1]; limited by solubility, real I50 said to be very much lower, read-out: half-inhibition concentration (I50)) was 7 µM, the inhibition at 1000 µM ([1]; ultimate concentration 1.0 mM, read-out: Inhibition (percent) of lipoxygenase from reticulocytes) was 100% and the “dilatation after carbachol-induced spasm” value [2] was “strong dilatation”.
